Experimental data reported in ChEMBL document CHEMBL4673253, “Discovery of EST73502, a Dual μ-Opioid Receptor Agonist and σ Receptor Antagonist Clinical Candidate for the Treatment of Pain” (J Med Chem, 2020).

Legend:
[1] = molecular target: T1, Alpha-1A adrenergic receptor (Homo sapiens) (UniProt P35348); assay: Binding affinity to human alpha1A adrenoreceptor expressed in membranes assessed as inhibition of [3H]-prazosin binding incubated for 90 mins by scintillation counting method; design: concentration or dose not given beside the values; settings: Cell membrane
T1 sequence (whole entry): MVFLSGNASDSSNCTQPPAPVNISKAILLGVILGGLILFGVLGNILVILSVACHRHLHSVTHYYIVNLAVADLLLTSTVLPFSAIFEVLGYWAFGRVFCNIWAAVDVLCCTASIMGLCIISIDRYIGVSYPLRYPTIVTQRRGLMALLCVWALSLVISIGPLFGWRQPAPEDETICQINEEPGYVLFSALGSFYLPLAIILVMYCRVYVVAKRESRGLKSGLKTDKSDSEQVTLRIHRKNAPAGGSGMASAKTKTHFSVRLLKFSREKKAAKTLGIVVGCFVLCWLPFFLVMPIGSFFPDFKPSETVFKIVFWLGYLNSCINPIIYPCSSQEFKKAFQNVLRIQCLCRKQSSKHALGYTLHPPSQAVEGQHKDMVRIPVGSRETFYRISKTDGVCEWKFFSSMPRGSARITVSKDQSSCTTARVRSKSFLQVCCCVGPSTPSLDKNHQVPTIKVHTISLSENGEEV

Mu-type opioid receptor [2] = molecular target: T2, Mu-type opioid receptor (Homo sapiens, UniProt P35372); assay: Displacement of [3H]-DAMGO from human MOR expressed in CHOK1 cell membranes incubated for 60 mins by liquid scintillation counting method; design: species or system CHO-K1, Cell membrane
[3] = molecular target: T3, Sigma non-opioid intracellular receptor 1 (Homo sapiens, UniProt Q99720); assay: Displacement of 3H](+)-pentazocine from human sigma1 receptor expressed in HEK293 cell membranes incubated for 120 mins by liquid scintillation counting method; design: species or system Cell membrane
Mu-type opioid receptor [4] = molecular target: T2, Mu-type opioid receptor; assay: Displacement of [3H]-DAMGO from human MOR expressed in CHOK1 cell membranes at 1 uM incubated for 60 mins by liquid scintillation counting method; settings: CHO-K1, Cell membrane
Mu-type opioid receptor [5] = molecular target: T2, Mu-type opioid receptor; assay: Agonist activity at human MOR expressed in CHOK1 cells assessed as […] of cAMP accumulation incubated for 45 mins by HTRF assay; type: functional, cell-based, CHO-K1
Mu-type opioid receptor [6] = molecular target: T2, Mu-type opioid receptor; assay: Agonist activity at human MOR expressed in CHOK1 cells assessed as […] of cAMP accumulation at 1 uM incubated for 45 mins by HTRF assay; type: functional, cell-based; settings: CHO-K1
Mu-type opioid receptor [7] = molecular target: T2, Mu-type opioid receptor; assay: Agonist activity at human MOR expressed in CHOK1 cells assessed as […] of cAMP accumulation incubated for 45 mins by HTRF assay relative to DAMGO; type: functional, cell-based; settings: CHO-K1, filed as agonist
[8] = molecular target: Voltage-gated inwardly rectifying potassium channel KCNH2 (Homo sapiens, UniProt Q12809)
Description: Inhibition of human ERG expressed in CHO cells at -80 mV holding potential by whole cell patch clamp assay

hERG (KCNH2) = hERG (KCNH2) (Homo sapiens, UniProt Q12809); assay: Inhibition of human ERG expressed in CHO cells at 10 uM at -80 mV holding potential by whole cell patch clamp assay; type: cell-based; settings: CHO cells expressing human ERG
Mus musculus = assay: Antinociceptive activity in CD1 mouse PSNL model assessed as reduction in mechanical allodynia by measuring decrease in the pressure required to elicit withdrawal of the ipsilateral paw after von Frey filament stimulation at 1.25 mg/kg, ip BID for 11 days from day 13 to day 22; type: functional; settings: 264 h, time 11 day
[9] = Toxicity in CD1 mouse assessed as inhibition of intestinal transit by measuring percentage of distance traveled by charcoal meal at 20 mg/kg, po; type: organism-based; settings: in vivo
[10] = molecular target: T3, Sigma non-opioid intracellular receptor 1; assay: Displacement of 3H](+)-pentazocine from human sigma1 receptor expressed in HEK293 cell membranes at 10 uM incubated for 120 mins by liquid scintillation counting method; settings: Cell membrane
Mu-type opioid receptor [11] = molecular target: T2, Mu-type opioid receptor; assay: Displacement of [3H]-DAMGO from human MOR expressed in CHOK1 cell membranes at 10 uM incubated for 60 mins by liquid scintillation counting method; settings: CHO-K1, Cell membrane
Mu-type opioid receptor [12] = molecular target: T2, Mu-type opioid receptor; assay: Agonist activity at human MOR expressed in CHOK1 cells assessed as […] of cAMP accumulation at 10 uM incubated for 45 mins by HTRF assay; type: functional, cell-based; settings: CHO-K1

T2 sequence (P35372 whole entry): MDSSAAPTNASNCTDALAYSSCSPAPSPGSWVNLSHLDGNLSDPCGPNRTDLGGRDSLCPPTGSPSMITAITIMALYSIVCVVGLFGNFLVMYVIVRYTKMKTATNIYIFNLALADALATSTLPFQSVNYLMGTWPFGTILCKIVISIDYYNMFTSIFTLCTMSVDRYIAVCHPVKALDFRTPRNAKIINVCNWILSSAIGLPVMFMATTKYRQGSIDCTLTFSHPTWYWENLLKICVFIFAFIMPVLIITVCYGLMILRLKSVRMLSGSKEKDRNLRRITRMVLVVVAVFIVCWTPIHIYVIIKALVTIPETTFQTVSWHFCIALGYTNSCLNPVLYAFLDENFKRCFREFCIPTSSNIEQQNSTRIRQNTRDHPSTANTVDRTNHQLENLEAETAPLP
Chain of hERG (KCNH2) (Q12809 whole entry): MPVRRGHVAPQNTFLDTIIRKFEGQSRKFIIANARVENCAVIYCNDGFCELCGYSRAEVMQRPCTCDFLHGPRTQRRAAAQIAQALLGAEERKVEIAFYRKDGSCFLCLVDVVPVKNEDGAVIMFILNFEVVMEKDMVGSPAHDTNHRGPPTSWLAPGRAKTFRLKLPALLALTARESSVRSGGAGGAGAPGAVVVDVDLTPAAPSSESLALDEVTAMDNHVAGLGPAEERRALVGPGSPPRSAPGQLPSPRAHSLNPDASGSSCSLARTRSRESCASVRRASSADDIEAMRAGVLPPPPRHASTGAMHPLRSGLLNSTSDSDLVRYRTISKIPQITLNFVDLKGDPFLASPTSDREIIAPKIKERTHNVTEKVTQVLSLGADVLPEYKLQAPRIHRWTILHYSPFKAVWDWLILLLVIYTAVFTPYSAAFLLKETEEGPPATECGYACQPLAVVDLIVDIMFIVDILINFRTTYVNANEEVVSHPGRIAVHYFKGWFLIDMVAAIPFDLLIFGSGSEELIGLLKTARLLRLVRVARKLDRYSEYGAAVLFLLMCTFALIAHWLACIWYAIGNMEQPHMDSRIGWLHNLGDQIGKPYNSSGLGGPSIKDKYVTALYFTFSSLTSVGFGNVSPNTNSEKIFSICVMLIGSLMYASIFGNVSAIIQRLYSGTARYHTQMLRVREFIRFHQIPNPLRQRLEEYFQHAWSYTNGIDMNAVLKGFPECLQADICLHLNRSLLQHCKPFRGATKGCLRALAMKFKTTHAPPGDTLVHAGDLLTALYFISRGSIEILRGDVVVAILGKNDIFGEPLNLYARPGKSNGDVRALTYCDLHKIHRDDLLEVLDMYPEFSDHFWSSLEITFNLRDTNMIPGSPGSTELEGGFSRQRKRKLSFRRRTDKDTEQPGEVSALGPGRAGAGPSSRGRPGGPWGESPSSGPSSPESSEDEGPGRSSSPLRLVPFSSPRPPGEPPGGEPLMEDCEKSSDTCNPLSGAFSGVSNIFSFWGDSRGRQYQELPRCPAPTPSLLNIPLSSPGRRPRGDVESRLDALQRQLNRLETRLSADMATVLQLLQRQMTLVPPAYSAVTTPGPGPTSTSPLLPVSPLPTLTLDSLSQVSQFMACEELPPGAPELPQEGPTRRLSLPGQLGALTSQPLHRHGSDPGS
Chain of Voltage-gated inwardly rectifying potassium channel KCNH2 (Q12809 whole entry): as above
T3 sequence (Q99720 whole entry): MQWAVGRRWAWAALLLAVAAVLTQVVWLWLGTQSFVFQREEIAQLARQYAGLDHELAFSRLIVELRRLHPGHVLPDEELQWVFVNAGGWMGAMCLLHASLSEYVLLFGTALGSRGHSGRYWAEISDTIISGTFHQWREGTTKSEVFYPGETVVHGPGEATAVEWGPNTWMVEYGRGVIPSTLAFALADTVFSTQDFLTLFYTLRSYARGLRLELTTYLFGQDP

SMILES	inhibition [1] [%]	Ki (Mu-type opioid receptor [2]) [nM]	Ki [3] [nM]	inhibition (Mu-type opioid receptor [4]) [%]	EC50 (Mu-type opioid receptor [5]) [nM]	inhibition (Mu-type opioid receptor [6]) [%]	Emax (Mu-type opioid receptor [7]) [%]	IC50 [8] [nM]	inhibition at 10 µM (hERG (KCNH2)) [%]	inhibition in vivo at 1.25 mg/kg (Mus musculus) [%]	Activity [9]	inhibition [10] [%]	inhibition (Mu-type opioid receptor [11]) [%]	inhibition (Mu-type opioid receptor [12]) [%]
CN1CC2(CCN(CCc3ccccc3)CC2)OC(c2ccccc2)C1=O (stereo unspecified)	26	> 1000	242	< 50	> 1000	< 50								
C[C@@H]1OC2(CCN(CCc3ccccc3)CC2)CN(C)C1=O	6	> 1000	165	< 50	1780									
CC1OC2(CCN(CCc3ccccc3)CC2)CN(c2ccccc2)C1=O (stereo unspecified)	72						85							
CCN1CC2(CCN(CCc3ccccc3F)CC2)O[C@H](C)C1=O	15	18	68		24		84	4000						
CCN1CC2(CCN(CCc3cccc(F)c3F)CC2)O[C@H](C)C1=O	8	22	556		10		90	> 10000	< 50					
O=C1N(c2cccnc2C(F)(F)F)CC2(CCN(CCc3ccccc3F)CC2)OC12CC2	57								< 50					
CC(C)C1OC2(CCN(CCc3ccccc3)CC2)CN(C)C1=O (stereo unspecified)	29	115	122		174		85	6200						
CC[C@H]1OC2(CCN(CCc3ccccc3)CC2)CN(C)C1=O	13	192	139		505		90	6600						
CC1OC2(CCN(CCc3ccccc3)CC2)CN(CCc2ccccc2)C1=O (stereo unspecified)	58	20			22		94	200						
COc1ccc2c3c1O[C@H]1C(=O)CC[C@@]4(O)[C@@H](C2)N(C)CC[C@]314 [OXYCODONE]								> 10000	< 50	51	Toxic	< 50		
C[C@H]1OC2(CCN(CCc3ccccc3)CC2)CN(C2CC2)C1=O	51	6			7		91	4500						
CN1CC2(CCN(CCc3ccccc3)CC2)OC2(CC2)C1=O	41	221	161		442		85	3600						
CC1OC2(CCN(CCc3ccccc3)CC2)CN(CCc2ccccc2F)C1=O (stereo unspecified)	7	> 1000	892	< 50	> 1000	< 50		> 10000	< 50					
Cc1cc(OCCN2CCOCC2)nn1-c1ccc2ccccc2c1									< 50				< 50	< 50
CCN1CC2(CCN(CCc3cccc(F)c3)CC2)O[C@H](C)C1=O	42	56	64		56		83							
C[C@H]1OC2(CCN(CCc3ccccc3)CC2)CN(C)C1=O	19	91	277		319		83	> 10000	< 50					
CC1OC2(CCN(CCc3ccccc3)CC2)CN(C(C)C)C1=O (stereo unspecified)	35	33	30		21		100	3900						
CCN1CC2(CCN(CCc3cc(F)ccc3F)CC2)O[C@@H](C)C1=O	9							> 10000	< 50					
CCN1CC2(CCN(CCc3ccc(F)cc3)CC2)O[C@H](C)C1=O	21	164	76		108		81	1500						
CCN1CC2(CCN(CCc3ccccc3)CC2)OC(C)C1=O (stereo unspecified)	27	41	43		65		84	3100						
CCN1CC2(CCN(CCc3ccc(F)cc3F)CC2)O[C@H](C)C1=O	11	62	94		53		92	2500						
CC1OC2(CCN(CCc3ccccc3)CC2)CN(Cc2ccccc2)C1=O (stereo unspecified)	67	2	10		2		97	100						
CC1OC2(CCN(CCc3ccccc3)CC2)CN(C)C1=O (stereo unspecified)	16	156	142		787		79	> 10000	< 50					
CN1CC2(CCN(CCc3ccccc3)CC2)OC(C)(C)C1=O	37	> 1000	50	< 50	624									
CCN1CC2(CCN(CCc3c(F)cccc3F)CC2)O[C@H](C)C1=O	10	21	609		16		95							
CN1CC2(CCN(CCc3ccccc3)CC2)OCC1=O	36	> 1000	282	< 50	> 1000	< 50								
CCN1CC2(CCN(CCc3ccccc3)CC2)O[C@H](C)C1=O	14	26	66		49		83	4700						
CCN1CC2(CCN(CCc3ccccn3)CC2)OC2(CC2)C1=O	0	> 1000	783		1500								< 50	
